We go through 25 compounds from US20230399312A1, “SUBSTITUTED PYRIMIDINES AND METHODS OF USE” (THERAVANCE BIOPHARMA R&D IP, LLC, priority 2020, published 2023).

A value given as a limit tells only on which side of the number the result lay.

Assay [1] deals with TGF-β-stimulated SMAD3 phosphorylation in BEAS-2B cells. Nature of the assay: Cellular ALK5 potency assay, inhibition of TGF-β stimulated pSMAD3 formation in BEAS-2B cells. It counts as cell-based. Particulars: Homo sapiens, pSMAD3, TGF-β 10 ng/mL, read-out: BEAS2B pIC50 (converted). In a few lines: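 Human lung epithelial BEAS-2B cells were pre-treated with compound for 1 h at 37 °C, then stimulated with TGF-β (final 10 ng/mL) for 30 min before lysis. pSMAD3 was quantified by AlphaLISA and pIC50 derived from dose-dependent signal change versus TGF-β-stimulated untreated cells.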

Assay [2] deals with T1, recombinant human ALK5 (TGF-βR1) protein (Homo sapiens, UniProt P36897).
T1 construct: purchased Life Technologies PR9075A
T1 sequence (P36897 34-503): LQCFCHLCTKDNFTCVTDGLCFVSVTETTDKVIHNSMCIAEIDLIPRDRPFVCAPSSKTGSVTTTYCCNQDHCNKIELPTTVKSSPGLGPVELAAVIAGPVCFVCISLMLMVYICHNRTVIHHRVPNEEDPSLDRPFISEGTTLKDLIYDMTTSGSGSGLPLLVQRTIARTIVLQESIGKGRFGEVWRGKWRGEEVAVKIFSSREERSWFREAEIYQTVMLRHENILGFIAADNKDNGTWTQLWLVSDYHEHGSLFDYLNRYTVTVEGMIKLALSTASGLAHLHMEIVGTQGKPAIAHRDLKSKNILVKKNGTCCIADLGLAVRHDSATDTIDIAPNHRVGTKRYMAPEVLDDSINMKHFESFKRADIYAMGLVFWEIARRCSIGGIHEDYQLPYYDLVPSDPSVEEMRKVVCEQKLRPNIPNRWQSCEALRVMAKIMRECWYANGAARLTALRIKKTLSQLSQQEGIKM
Nature of the assay: Biochemical ALK5 (TGF-βR1) assay to measure pKi (LANCE Ultra ULight kinase assay). The conditions noted are these: apparent pKi, converted from pIC50 by Cheng-Prusoff. The procedure, abridged: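 Dose-response series of each compound were preincubated with the kinase for 60 minutes at room temperature. Phosphorylation proceeded for 60 minutes at 37 °C after ATP addition, was quenched with EDTA, and was detected with a europium anti-phospho-Thr1342 antibody by TR-FRET; pKi was calculated from pIC50.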
In general terms: Time-resolved FRET reads energy transfer from a long-lived donor to a nearby acceptor.

For the compound `Cc1cccc(-c2nc(Nc3ccnc(Nc4ccc(NC(=O)C5CCCNC5)cc4)n3)c3cccn3n2)n1` (centres unmarked) [Compound 1032, N-[4-[[4-[[2-(6-methyl-2-pyridyl)pyrrolo[2,1-f][1,2,4]triazin-4-yl]amino]pyrimidin-2-yl]amino]phenyl]piperidine-3-carboxamide], the IC50 in assay [1] was 25.1 to 158 nM. In addition, in assay [2], the Ki was 0.0398 to 0.316 nM.
Taken in the same sequence, the figures for `Cc1cccc(-c2nccc(Nc3ccnc(Nc4ccc(CN5CC(C(=O)OCC6CNC6)C5)cc4)n3)n2)n1` [Compound 88, azetidin-3-ylmethyl 1-(4-((4-((2-(6-methylpyridin-2-yl)pyrimidin-4-yl)amino)pyrimidin-2-yl)amino)benzyl)azetidine-3-carboxylate] were 25.1 to 158 nM and 0.0398 to 0.316 nM.
The matching figures for `CCN1CCN(S(=O)(=O)c2ccc(Nc3nccc(Nc4ccnc(-c5cccc(C)n5)n4)n3)cc2)CC1` [Compound 38, N2-[4-(4-ethylpiperazin-1-yl)sulfonylphenyl]-N4-[2-(6-methyl-2-pyridyl)pyrimidin-4-yl]pyrimidine-2,4-diamine]: 25.1 to 158 nM and 0.0398 to 0.316 nM.
The matching figures for `COC(=O)c1ccc(Nc2nccc(Nc3nc(-c4cccc(C)n4)nn4cccc34)n2)cn1` [Compound 1024, methyl 5-[[4-[[2-(6-methyl-2-pyridyl)pyrrolo[2,1-f][1,2,4]triazin-4-yl]amino]pyrimidin-2-yl]amino]pyridine-2-carboxylate]: 25.1 to 158 nM and 0.0398 to 0.316 nM.
Regarding `Cc1cccc(-c2nccc(Nc3ccnc(Nc4ccc(N5CCC(N)CC5)cc4)n3)n2)n1` [Compound 324, N2-[4-(4-amino-1-piperidyl)phenyl]-N4-[2-(6-methyl-2-pyridyl)pyrimidin-4-yl]pyrimidine-2,4-diamine], the IC50 in assay [1] is 25.1 to 158 nM. Moreover, the Ki in assay [2] was 0.0398 to 0.316 nM.
The matching figures for `Cc1cccc(-c2nccc(Nc3ccnc(Nc4ccc(N)c(C)c4)n3)n2)n1` [Compound 514, N2-(4-amino-3-methyl-phenyl)-N4-[2-(6-methyl-2-pyridyl)pyrimidin-4-yl]pyrimidine-2,4-diamine]: ≤ 20 nM and 0.398 to 3.16 nM.
Taken in the same sequence, the figures for `Cc1cccc(-c2nccc(Nc3ccnc(Nc4ccc(C(=O)OCCC5CCNCC5)nc4)n3)n2)n1` [Compound 558, 2-(4-piperidyl)ethyl 5-[[4-[[2-(6-methyl-2-pyridyl)pyrimidin-4-yl]amino]pyrimidin-2-yl]amino]pyridine-2-carboxylate] were 25.1 to 158 nM and 0.0398 to 0.316 nM.
Taken in the same sequence, the figures for `Cc1cccc(-c2nccc(Nc3ccnc(Nc4ccc(S(=O)(=O)N5CCN(C(C)(C)C)CC5)cc4)n3)n2)n1` [Compound 264, N2-[4-(4-tert-butylpiperazin-1-yl)sulfonylphenyl]-N4-[2-(6-methyl-2-pyridyl)pyrimidin-4-yl]pyrimidine-2,4-diamine] were 25.1 to 158 nM and 0.0398 to 0.316 nM.
On to `Cc1cccc(-c2nccc(Nc3ccnc(Nc4ccc(N5CCNCC5CC(=O)OC5CNC5)cc4)n3)n2)n1` (centres unmarked) [Compound 159, azetidin-3-yl 2-[1-[4-[[4-[[2-(6-methyl-2-pyridyl)pyrimidin-4-yl]amino]pyrimidin-2-yl]amino]phenyl]piperazin-2-yl]acetate], for which the IC50 in assay [1] was 200 to 1260 nM. In addition, the Ki in assay [2] was 0.0398 to 0.316 nM.
The matching figures for `Cc1cccc(-c2nccc(Nc3ccnc(Nc4csc(C(=O)O)n4)n3)n2)n1` [Compound 585, 4-[[4-[[2-(6-methyl-2-pyridyl)pyrimidin-4-yl]amino]pyrimidin-2-yl]amino]thiazole-2-carboxylic acid]: 200 to 1260 nM and 3.98 to 31.6 nM.
Consider `Cc1cccc(-c2nccc(Nc3ccnc(Nc4ccc(N5CCNCC5)c(Cl)c4)n3)n2)n1` [Compound 445, N2-(3-chloro-4-piperazin-1-yl-phenyl)-N4-[2-(6-methyl-2-pyridyl)pyrimidin-4-yl]pyrimidine-2,4-diamine], for which the IC50 in assay [1] is 25.1 to 158 nM. Moreover, the Ki in assay [2] was 0.0398 to 0.316 nM.
Taken in the same sequence, the figures for `Cc1cccc(-c2nccc(Nc3ccnc(Nc4ccc(C(=O)N5CCN(C)CC5)cc4)n3)n2)n1` [Compound 434, (4-methylpiperazin-1-yl)-[4-[[4-[[2-(6-methyl-2-pyridyl)pyrimidin-4-yl]amino]pyrimidin-2-yl]amino]phenyl]methanone] were 25.1 to 158 nM and 0.0398 to 0.316 nM.
As for `Cc1cccc(-c2nccc(Nc3ccnc(Nc4csc(C(=O)O[C@@H]5CCN(C)C5)c4)n3)n2)n1` [Compound 504, [(3R)-1-methylpyrrolidin-3-yl] 4-[[4-[[2-(6-methyl-2-pyridyl)pyrimidin-4-yl]amino]pyrimidin-2-yl]amino]thiophene-2-carboxylate], in assay [1], the IC50 was 25.1 to 158 nM. The Ki in assay [2] was 0.0398 to 0.316 nM.
Take `Cc1cccc(-c2nccc(Nc3ccnc(Nc4ccc(N(C)C5CNC5)cc4)n3)n2)n1` [Compound 496, N2-[4-[azetidin-3-yl(methyl)amino]phenyl]-N4-[2-(6-methyl-2-pyridyl)pyrimidin-4-yl]pyrimidine-2,4-diamine]: the IC50 in assay [1] was 25.1 to 158 nM. Also, the Ki in assay [2] was 0.0398 to 0.316 nM.
As to `Cc1cccc(-c2nccc(Nc3ccnc(Nc4cccc(NC(=O)N5CCN(C)CC5)c4)n3)n2)n1` [Compound 509, 4-methyl-N-[3-[[4-[[2-(6-methyl-2-pyridyl)pyrimidin-4-yl]amino]pyrimidin-2-yl]amino]phenyl]piperazine-1-carboxamide], in assay [1], the IC50 is 25.1 to 158 nM. For the same compound, the Ki in assay [2] is 0.0398 to 0.316 nM.
For `Cc1cccc(-c2nccc(Nc3ccnc(Nc4ccc(C(=O)NCC5CNC5)cc4)n3)n2)n1` [Compound 92, N-(azetidin-3-ylmethyl)-4-[[4-[[2-(6-methyl-2-pyridyl)pyrimidin-4-yl]amino]pyrimidin-2-yl]amino]benzamide], in assay [1], the IC50 is ≤ 20 nM. Besides, the Ki in assay [2] was 0.0398 to 0.316 nM.
Taken in the same sequence, the figures for `Cc1cccc(-c2nccc(Nc3ccnc(Nc4cncc(C(=O)O[C@@H]5CCNC5)c4)n3)n2)n1` [Compound 549, (R)-pyrrolidin-3-yl 5-((4-((2-(6-methylpyridin-2-yl)pyrimidin-4-yl)amino)pyrimidin-2-yl)amino)nicotinate] were 25.1 to 158 nM and 0.398 to 3.16 nM.
The matching figures for `Cc1cccc(-c2nccc(Nc3ccnc(Nc4ccc(CN5CCN[C@@H](C(=O)O)C5)cc4)n3)n2)n1` [Compound 200, (2R)-4-[[4-[[4-[[2-(6-methyl-2-pyridyl)pyrimidin-4-yl]amino]pyrimidin-2-yl]amino]phenyl]methyl] piperazine-2-carboxylic acid]: 200 to 1260 nM and 0.0398 to 0.316 nM.
The matching figures for `COC(=O)Cc1ccc(Nc2nccc(Nc3ccnc(-c4cccc(C)n4)n3)n2)cc1` [Compound 442, methyl 2-[4-[[4-[[2-(6-methyl-2-pyridyl)pyrimidin-4-yl]amino]pyrimidin-2-yl]amino]phenyl]acetate]: 25.1 to 158 nM and 0.398 to 3.16 nM.
On to `COC(=O)CC1CN(c2ccc(Nc3nccc(Nc4ccnc(-c5cccc(C)n5)n4)n3)cc2)CCN1` (centres unmarked) [Compound 491, methyl 2-[4-[4-[[4-[[2-(6-methyl-2-pyridyl)pyrimidin-4-yl]amino]pyrimidin-2-yl]amino]phenyl]piperazin-2-yl]acetate], for which the IC50 in assay [1] was 25.1 to 158 nM. For the same compound, the Ki in assay [2] is 0.0398 to 0.316 nM.
The matching figures for `Cc1cccc(-c2nccc(Nc3ccnc(Nc4ccc(CN5CCC(CO)CC5)cc4)n3)n2)n1` [Compound 474, [1-[[4-[[4-[[2-(6-methyl-2-pyridyl)pyrimidin-4-yl]amino]pyrimidin-2-yl]amino]phenyl]methyl]-4-piperidyl]methanol]: 25.1 to 158 nM and ≤ 0.0316 nM.
In the case of `Cc1cccc(-c2nccc(Nc3ccnc(Nc4ccc(N5CCC(N6CCN(C)CC6)CC5)cc4)n3)n2)n1` [Compound 4, N2-[4-[4-(4-methylpiperazin-1-yl)-1-piperidyl]phenyl]-N4-[2-(6-methyl-2-pyridyl)pyrimidin-4-yl]pyrimidine-2,4-diamine], the IC50 in assay [1] was 25.1 to 158 nM. In assay [2], the Ki is 0.0398 to 0.316 nM.
The matching figures for `COc1cc(N2CCOCC2)ccc1Nc1nccc(Nc2ccnc(-c3cccc(C)n3)n2)n1` [Compound 348, N2-(2-methoxy-4-morpholino-phenyl)-N4-[2-(6-methyl-2-pyridyl)pyrimidin-4-yl]pyrimidine-2,4-diamine]: 200 to 1260 nM and 3.98 to 31.6 nM.
The matching figures for `Fc1ccc(-c2nccc(Nc3ccnc(Nc4ccc(N5CCOCC5)cc4)n3)n2)nc1C(F)F` [Compound 426, N4-(2-(6-(difluoromethyl)-5-fluoropyridin-2-yl)pyrimidin-4-yl)-N2-(4-morpholinophenyl)pyrimidine-2,4-diamine]: 25.1 to 158 nM and 3.98 to 31.6 nM.
Taken in the same sequence, the figures for `Cc1cccc(-c2nccc(Nc3ccnc(Nc4csc(C(=O)OCCC5CNC5)c4)n3)n2)n1` [Compound 602, 2-(azetidin-3-yl)ethyl 4-[[4-[[2-(6-methyl-2-pyridyl)pyrimidin-4-yl]amino]pyrimidin-2-yl]amino]thiophene-2-carboxylate] were 25.1 to 158 nM and 0.0398 to 0.316 nM.
